Laboratory results as given in patent publication US5928645A, “Extracted substance having anti-HIV activity” (Young Bok Han & Korean Assoc. of Creation Research, priority 1992, dated 1999).
Where two headings read alike, the source gives them in different places.

How the values were obtained:
[1] = system: HIV-infected cells (T cell line SupT1); assay: Syncytium-formation assay (number of multinucleate cells); format: cell-based; conditions: three-day incubation
Method: To evaluate toxicity of the extracted substances on a T cell line (SupT1), maximum acceptable concentrations of antiviral agents were determined as follows:
After incubation, the cells were treated with trypan blue. The number of cells that excluded the dye was counted using a hemocytometer. "TCID50 " is defined as the 50% tissue culture-infective dose. (Reference: Techniques in HIV research, ed. Aldovini, A., and Walter, B. D., Stockton Press, N.Y. Unitd States, Chapter 4. Quantitative assay for virus infectivity, pp. 71-73, 1990.) The 50% tissue culture-infective dose (TCID50) is calculated using the method of Reed and Muench (Dulbecco, R., "Endpoint Method-Measurement of the infectious titer of a viral sample" in the chapter entitled: The Nature of Viruses in Virology, Second Edition, J. P. Lippincott, Philadelphia, pp. 22-25, 1988). This method is applicable for measuring the infectious titer of a viral sample from an assay involving a series of progressive dilutions of virus. To generate the 50% endpoint dilution, an empirical pooling of the results is done after reading the plate for visible infection at all of the dilutions tested. In cell cultures, the tissue culture infective dose (TCID50) is the dilution of virus suspension that infects 50% of the cell cultures as measured by visible CPE.
After a three-day incubation the number of multinucleate cells in each culture were counted. As comparative tests, similar experiments were performed using AZT or berberine, rather than the extract of the present invention, to treat the cells.

reverse transcriptase = assay: Reverse transcriptase activity of HIV-infected H9 cells; format: cell-based; conditions: 0.5 μg/ml
Method: The effect of the extract of the present invention on reverse transcriptase activity and on viral replication was also measured in H9 host cells. HIV infected H9 cells were cultured in RPMI 1640 supplemented with 10% (v/v) of heat-inactivated fetal calf serum and 1% (v/v) […] Every third day 1/4 of the cultures were transferred to new media containing the same concentration of the extract. The cultures were harvested after 9 days and centrifuged for 3 minutes in an Eppendorf centrifuge. 600 μl of supernatant was mixed 300 μl of 30% polyethylene glycol (PEG) and then centrifuged for 10 minutes. The pellet was resuspended in RT suspension buffer (50 mM Tris, pH 7.5, 1 mM DTT, 20% glycerol, 0.25% Triton X-100). These virus samples were frozen at -70° C. until assayed. Aliquots of virus (10 μl) were incubated with 20 μl of a cocktail containing 50 mM Tris, pH 7.5, 5 mM DTT, 5 mM MgCl2, 150 mM KCl, 0.05% Triton X-100, 0.3 mM glutathione, 0.5 mM EGTA, 50 μg/ml poly(rA)dT, 10μ Ci thymidine triphosphate, and 17.25 μl distilled water for 1 hour at 37° C. […] Precipitates were collected on Whatman GF/C glass fibers, washed several times with ice-cold 5% TCA and once with 70% ethanol, air dried and counted in a liquid scintillation counter.

[2] = system: ABEI-microperoxidase-H2 O2 system; assay: Antioxidant activity by chemiluminescence (inhibition of light intensity); format: biochemical
Excerpt: Therefore, we characterized the extract of the present invention with respect to its ability to function as an antioxidant. We compared the extract to the known antioxidant t-butylhydroxy toluene (BHT) using a chemiluminescence assay developed in this laboratory. […] Therefore, it is proposed that the extract has anti-HIV effect.
Materials: microperoxidase (MP, Sigma Chemical Company, St. Louis, Mo., U.S.A.), aminobuty ethylisoluminol (ABEI, Sigma Chemical Company, St. Louis, Mo., U.S.A.), t-butylhydroxy toluene (BHT, Sigma Chemical Company, St. Louis, Mo., U.S.A.).
An ABEI-microperoxidase-H2 O2 system was used to assay the antioxidant activity of the extract of the present invention and also that of the known antioxidant BHT. The activity of berberine as an antioxidant was also assessed.
ABEI was used at 0.18 μM. Compounds being assayed were used at 10 mg/ml as a maximum concentration and also at serial dilutions. 200 μL of ABEI, t-butylhydroxy toluene (BHT), pure berberine or the extracted substance at 10 mg/ml (or a serial dilution thereof) were put in a polystyrene tube suitable for use in a Berthold 9502 luminometer. Hydrogen peroxide (0.35%) and microperoxidase (0.01 mg/ml) were autoinjected into the tube to start the chemiluminescence reaction. Chemiluminescence from the reaction was measured for 2 seconds using a Berthold Luminometer 9502 (Clilumat). In control samples distilled water and ethyl alcohol were used. The antioxidant activity of the extract was compared with commercial antioxidant BHT. The antioxidant activity of BHT has been studied for many years (Branen, A. L.; Toxicological and biochemistry of butylated hydrosyanisole and butylated hydroxytoluene. J. Am. Oil Chem. Soc. 52:59, 1975). BHT removes free radicals in oxidation reactions, and it inhibits oxidation of materials.
An antioxidant present in the sample will prevent ABEI from being oxidized by microperoxidase, thus inhibiting chemiluminescence. Antioxidant activity was calculated from the chemiluminescence intensity using the following expression: [formula]

[3] = system: HIV reverse transcriptase; conditions: cited from earlier work
HIV = conditions: Tan et al. 1992; cited from earlier work
[4] = with respect to the template-primer complex, (rA)n, (dT)
[5] = with respect to the triphosphate substrate, dTTP

**Q.** For `Cc1cn([C@H]2C[C@H](N=[N+]=[N-])[C@@H](CO)O2)c(=O)[nH]c1=O` [AZT, azidothymidine], which “No. of Multiple-Nucleate Cells” value ([1]; 0.2 μg/mL) is on record?
**A.** 0

**Q.** What about the “No. of Multiple-Nucleate Cells” value ([1]; 0.5 μg/mL) of the same compound?
**A.** 1

**Q.** And the “No. of Multiple-Nucleate Cells” value ([1]; 1 μg/mL)?
**A.** 0

**Q.** And the “No. of Multiple-Nucleate Cells” value ([1]; 5 μg/mL)?
**A.** 0

**Q.** Which “inhibition of viral RT activity” value (reverse transcriptase) does the source give for `COc1ccc2cc3[n+](cc2c1OC)CCc1cc2c(cc1-3)OCO2` [Berberine, berberine] here?
**A.** marked inhibitory effect on RT activity

**Q.** What about the “No. of Multiple-Nucleate Cells” value ([1]; 0.1 μg/mL) of the same compound?
**A.** 8

**Q.** What about the “No. of Multiple-Nucleate Cells” value ([1]; 0.5 μg/mL) of the same compound?
**A.** 5

**Q.** What about the “No. of Multiple-Nucleate Cells” value ([1]; 1 μg/mL) of the same compound?
**A.** 2

**Q.** And the “No. of Multiple-Nucleate Cells” value ([1]; 3 μg/mL)?
**A.** 1

**Q.** What about the “Percentage of inhibition of light intensity” value ([2]; 0.63 mg/ml) of the same compound?
**A.** 11%

**Q.** What about the “Percentage of inhibition of light intensity” value ([2]; 1.25 mg/ml) of the same compound?
**A.** 12%

**Q.** What about the “Percentage of inhibition of light intensity” value ([2]; 2.5 mg/ml) of the same compound?
**A.** 12%

**Q.** What about the “Percentage of inhibition of light intensity” value ([2]; 5.0 mg/ml) of the same compound?
**A.** 21%

**Q.** And the “Percentage of inhibition of light intensity” value ([2]; 10.0 mg/ml)?
**A.** 57%

**Q.** And the “antioxidant activity compared with the total extract” value ([2]; 0.63-10.0 mg/ml)?
**A.** much lower

**Q.** What does the source list for `O=c1cc(-c2ccccc2)oc2cc(O)c(O)c(O)c12` [baicalein]?
**A.** mode of inhibition [3, 4]: partially competitive; mode of inhibition [3, 5]: noncompetitive

**Q.** Which “order of anti-HIV effect” value (HIV) does the source give for `COc1ccc2cc3[n+](cc2c1OC)CCc1cc2c(cc1-3)OCO2` [berberine chloride] here?
**A.** jatrorrhizine chloride>berberine chloride>coptisine chloride

**Q.** With `c1c2c(cc3c1OCO3)-c1cc3ccc4c(c3c[n+]1CC2)OCO4` [coptisine chloride] as the compound, how does the “order of anti-HIV effect” value (HIV) read?
**A.** jatrorrhizine chloride>berberine chloride>coptisine chloride

**Q.** With `COc1cc2c(cc1O)CC[n+]1cc3c(OC)c(OC)ccc3cc1-2` [jatrorrhizine chloride] as the compound, how does the “order of anti-HIV effect” value (HIV) read?
**A.** jatrorrhizine chloride>berberine chloride>coptisine chloride

**Q.** With `O=c1c(O)c(-c2ccc(O)c(O)c2)oc2cc(O)c(O)c(O)c12` [quercetagetin] as the compound, how does the mode of inhibition [3, 4] read?
**A.** partially competitive

**Q.** What about the mode of inhibition [3, 5] of the same compound?
**A.** noncompetitive

**Q.** With `O=c1c(O)c(-c2ccc(O)c(O)c2)oc2cc(O)cc(O)c12` [quercetin] as the compound, how does the mode of inhibition [3, 4] read?
**A.** partially competitive

**Q.** And the mode of inhibition [3, 5]?
**A.** noncompetitive
